Biological target: T1, RNF25 (Homo sapiens, UniProt Q96BH1)
T1 construct: His-RNF25 used in ubiquitination assay
T1 sequence (Q96BH1 1-459): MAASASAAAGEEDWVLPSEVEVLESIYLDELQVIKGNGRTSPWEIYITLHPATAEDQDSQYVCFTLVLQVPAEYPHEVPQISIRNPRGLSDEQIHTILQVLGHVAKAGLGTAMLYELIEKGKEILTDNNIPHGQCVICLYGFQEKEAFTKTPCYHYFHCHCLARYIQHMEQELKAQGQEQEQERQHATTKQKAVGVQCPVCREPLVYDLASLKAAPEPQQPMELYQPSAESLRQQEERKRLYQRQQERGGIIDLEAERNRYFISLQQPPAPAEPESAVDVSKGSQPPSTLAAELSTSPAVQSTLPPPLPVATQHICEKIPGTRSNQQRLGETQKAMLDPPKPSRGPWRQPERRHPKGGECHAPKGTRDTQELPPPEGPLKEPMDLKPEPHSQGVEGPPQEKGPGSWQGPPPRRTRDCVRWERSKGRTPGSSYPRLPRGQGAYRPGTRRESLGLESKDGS
Assay: isothermal titration calorimetry
Type: binding

Compound: Cc1ccc(S(=O)(=O)/C=C/C#N)cc1 [BAY11-7082]
- Kd: 0.95 µM

From PMC12320230, “BAY11-7082 Targets RNF25 to Reverse TRIP4 Ubiquitination-dependent NF-κB Activation and Apoptosis Resistance in Renal Cell Carcinoma” (International Journal of Biological Sciences, 2025)
